On the set-up of data set [1]: method as in PMID 32815366. Particulars: cell line not given; cited from earlier work.
Data set [2] has as its system HCT-116 cells. The data set is described as follows: Cell viability (MTT) assay, HCT-116. To be noted: Homo sapiens, HCT-116, 48 h, read-out: Antiproliferative IC50, HCT-116.
Experimental: Section S 1.3 Cell viability assays
(§1) Cell Bank at the Chinese Academy of Sciences.
(§2) DMEM and FBS were obtained from Gibco-Thermo (BRL Co. Ltd., USA).
(§3) another 48 h. The cells were stained with 10 μl of MTT at incubator for approximately 4 h. The medium was discarded and replaced by 100 mL DMSO. The O.D. value was read at 570/630 nm with a spectrophotometer.
The test system of data set [3] is SW480 cells. The data set is described as follows: Cell viability (MTT) assay, SW480. To be noted: Homo sapiens, SW480, 48 h, read-out: Antiproliferative IC50, SW480.
Experimental: Section S 1.3 Cell viability assays
as §1, §2, §3
For data set [4], the target named is T1, rhIDO1 (Homo sapiens, UniProt P14902).
T1 construct: purchased
The data set is described as follows: IDO1 inhibition assay. Type of data set: biochemical. Particulars: means ± S.D. of three independent experiments. The procedure:
Section S1. Biological assays […]
Section S 1.2 IDO1 inhibition assays
IDO1 inhibition assays were carried out according to the manufacturers’ procedures, as described previously. The standard assay mixture (100 μL) contained 50 mM of potassium phosphate buffer (pH = 6.5), 10 mM ascorbate, 10 μM methylene blue, 100 μg/mL catalase, 1 mM L-tryptophan and 10 μg/mL of rhIDO1. The plate was incubated at 37 °C in a dark environment, and reactions were terminated after 60 min by the addition of 50 μL of fluorogenic developer solution and further incubated at 45 °C in dark for 3 h. Then, the plate was allowed to cool to room temperature for at least 1 h. After centrifugation at 1500g for 5 min at 20 °C, the fluorescence […]
M1000 Pro, Tecan US, Morrisville, NC) in an end-point mode. […]

Data set [5] deals with MCF-7 cells. In words: Cell viability (MTT) assay, MCF-7. Particulars: Homo sapiens, MCF7, 48 h, read-out: Antiproliferative IC50, MCF-7.
Experimental: Section S 1.3 Cell viability assays
as §1, §2, §3
The subject of data set [6] is MDA-MB-231 cells. In words: Cell viability (MTT) assay, MDA-MB-231. To be noted: Homo sapiens, MDA-MB-231, 48 h, read-out: Antiproliferative IC50, MDA-MB-231.
Experimental: Section S 1.3 Cell viability assays
as §1, §2, §3
The nature of data set [7]: Cell viability assay, HK2 normal renal cells. Particulars: human.
Text: On the basis of the IDO1 and HDAC activities, we explored the proliferation inhibitory activities of the selected compounds against four solid tumor cells lines.
Data set [8] addresses T2, HDAC6 human recombinant enzyme (Homo sapiens, UniProt Q9UBN7).
T2 sequence (Q9UBN7 1-1215): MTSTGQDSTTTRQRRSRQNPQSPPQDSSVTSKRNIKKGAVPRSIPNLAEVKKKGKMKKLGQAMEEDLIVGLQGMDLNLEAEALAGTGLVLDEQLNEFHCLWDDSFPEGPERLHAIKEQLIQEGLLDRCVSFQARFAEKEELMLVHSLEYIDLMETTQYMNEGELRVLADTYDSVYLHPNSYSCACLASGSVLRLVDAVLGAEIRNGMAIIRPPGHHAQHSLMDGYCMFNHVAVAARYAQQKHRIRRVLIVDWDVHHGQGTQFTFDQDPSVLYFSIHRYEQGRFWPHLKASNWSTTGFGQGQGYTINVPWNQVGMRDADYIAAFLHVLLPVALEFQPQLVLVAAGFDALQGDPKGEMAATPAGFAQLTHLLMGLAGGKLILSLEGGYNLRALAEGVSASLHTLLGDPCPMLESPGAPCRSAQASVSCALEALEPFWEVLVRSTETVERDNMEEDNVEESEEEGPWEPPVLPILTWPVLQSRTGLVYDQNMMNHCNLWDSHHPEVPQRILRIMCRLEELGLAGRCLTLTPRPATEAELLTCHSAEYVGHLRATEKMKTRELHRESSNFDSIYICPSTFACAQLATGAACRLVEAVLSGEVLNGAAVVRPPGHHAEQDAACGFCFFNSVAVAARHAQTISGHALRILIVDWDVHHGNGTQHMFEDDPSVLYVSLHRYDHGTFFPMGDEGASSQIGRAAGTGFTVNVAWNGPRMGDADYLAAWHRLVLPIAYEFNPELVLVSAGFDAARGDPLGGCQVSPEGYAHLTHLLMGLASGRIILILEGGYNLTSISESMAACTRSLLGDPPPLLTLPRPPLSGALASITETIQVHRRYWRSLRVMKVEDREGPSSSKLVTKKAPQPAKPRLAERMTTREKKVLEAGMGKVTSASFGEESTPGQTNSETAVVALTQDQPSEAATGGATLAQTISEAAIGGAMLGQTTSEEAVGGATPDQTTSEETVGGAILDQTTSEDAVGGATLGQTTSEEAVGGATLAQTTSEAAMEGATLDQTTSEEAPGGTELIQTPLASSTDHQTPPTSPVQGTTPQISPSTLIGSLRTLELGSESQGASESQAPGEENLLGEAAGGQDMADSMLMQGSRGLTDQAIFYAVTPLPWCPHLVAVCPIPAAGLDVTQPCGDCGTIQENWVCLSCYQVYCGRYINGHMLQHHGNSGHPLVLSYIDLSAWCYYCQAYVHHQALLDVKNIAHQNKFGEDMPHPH
In words: HDAC6 enzyme inhibitory activity assay. Particulars: for inhibition at 1 µM: read-out: HDAC6 Inhibition Rate at 1 μM. Type of data set: biochemical. The procedure: Section S1. Biological assays
Section S 1.1. HDAC6 enzyme inhibitory activity assay
Preparation of Master Mix. Trichostatin A in DMSO, Fluorogenic HDAC substrate 3, and HDAC6 human recombinant enzyme were diluted to 20 μM, 200 μM, and 7 ng/uL, respectively, using HDAC Assay Buffer.BSA was dissolved in 1 mL of distilled water to make a BSA solution at a concentration of 1 mg/mL. A certain amount of Fluorogenic HDAC substrate 3, BSA and HDAC Assay Buffer were mixed well to make a master mix, and 40 μL of the master mix was added to each well of a 96-well plate. In the drug administration group, 5 μL of Trichostatin A in DMSO and HDAC6 human recombinant enzyme were added to each well. 5 μL of HDAC Assay Buffer and HDAC6 human recombinant enzyme were added to each well of the blank group, and incubated for 30 min at 37 °C. Finally, 50 μL of undiluted HDAC substrate 3, BSA and HDAC Assay Buffer were added to each well. 50 μL of 2x HDAC Developer was added to each well and incubated at room temperature for 15 min. The samples were read in an enzyme marker with an excitation wavelength in the range of 350-380 nm and an emission light in the range of 440-460 nm.
The values of fluorescence intensities were read and the inhibition rate and IC50 were calculated. […]

Data set [9] concerns the target T3, HDAC11 (Homo sapiens, UniProt Q96DB2).
T3 sequence (Q96DB2 1-347): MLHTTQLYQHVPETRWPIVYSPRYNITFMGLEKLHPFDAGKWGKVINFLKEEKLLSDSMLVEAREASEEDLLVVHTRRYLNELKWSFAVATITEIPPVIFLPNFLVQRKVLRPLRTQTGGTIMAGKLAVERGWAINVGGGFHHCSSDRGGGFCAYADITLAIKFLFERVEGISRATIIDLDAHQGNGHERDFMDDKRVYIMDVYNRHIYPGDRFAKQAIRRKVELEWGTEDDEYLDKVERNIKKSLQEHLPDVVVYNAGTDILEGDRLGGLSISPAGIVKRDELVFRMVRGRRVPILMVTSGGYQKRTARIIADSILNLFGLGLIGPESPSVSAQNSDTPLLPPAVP
The data set is described as follows: HDAC isoform selectivity assay, HDAC11. The data set is classed as biochemical.

Data set [10] has as its target HDAC1 (Homo sapiens, UniProt Q13547). The data set is described as follows: HDAC isoform selectivity assay, HDAC1. Type of data set: biochemical.
Data set [11] has as its target HDAC4 (Homo sapiens, UniProt P56524). The data set is described as follows: HDAC isoform selectivity assay, HDAC4. Type of data set: biochemical. Particulars: read-out: HDAC4 % inhibition rate at 10 μM.

Results on five compounds are retold here after paper PMC12195740, “Discovery of Novel Imidazothiazole-Based Hydroxamic Acid Derivatives as Potent Indoleamine 2,3-Dioxygenase 1 and Histone Deacetylase 6 Dual Inhibitors” (Molecules, 2025).

T1 sequence (P14902 whole entry): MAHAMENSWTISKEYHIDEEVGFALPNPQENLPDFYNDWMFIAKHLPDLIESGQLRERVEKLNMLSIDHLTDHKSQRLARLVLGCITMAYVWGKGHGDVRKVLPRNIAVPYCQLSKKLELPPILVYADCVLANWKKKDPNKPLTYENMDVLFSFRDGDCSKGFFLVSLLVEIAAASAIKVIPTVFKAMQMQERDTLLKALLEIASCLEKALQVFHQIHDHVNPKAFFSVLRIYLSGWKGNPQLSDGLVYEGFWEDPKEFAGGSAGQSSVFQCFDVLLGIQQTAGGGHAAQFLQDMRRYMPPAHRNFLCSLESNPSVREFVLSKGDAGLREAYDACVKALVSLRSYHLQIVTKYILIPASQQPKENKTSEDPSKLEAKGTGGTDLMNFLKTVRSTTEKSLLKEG
Sequence of HDAC4 (P56524 whole entry, species assumed, canonical isoform): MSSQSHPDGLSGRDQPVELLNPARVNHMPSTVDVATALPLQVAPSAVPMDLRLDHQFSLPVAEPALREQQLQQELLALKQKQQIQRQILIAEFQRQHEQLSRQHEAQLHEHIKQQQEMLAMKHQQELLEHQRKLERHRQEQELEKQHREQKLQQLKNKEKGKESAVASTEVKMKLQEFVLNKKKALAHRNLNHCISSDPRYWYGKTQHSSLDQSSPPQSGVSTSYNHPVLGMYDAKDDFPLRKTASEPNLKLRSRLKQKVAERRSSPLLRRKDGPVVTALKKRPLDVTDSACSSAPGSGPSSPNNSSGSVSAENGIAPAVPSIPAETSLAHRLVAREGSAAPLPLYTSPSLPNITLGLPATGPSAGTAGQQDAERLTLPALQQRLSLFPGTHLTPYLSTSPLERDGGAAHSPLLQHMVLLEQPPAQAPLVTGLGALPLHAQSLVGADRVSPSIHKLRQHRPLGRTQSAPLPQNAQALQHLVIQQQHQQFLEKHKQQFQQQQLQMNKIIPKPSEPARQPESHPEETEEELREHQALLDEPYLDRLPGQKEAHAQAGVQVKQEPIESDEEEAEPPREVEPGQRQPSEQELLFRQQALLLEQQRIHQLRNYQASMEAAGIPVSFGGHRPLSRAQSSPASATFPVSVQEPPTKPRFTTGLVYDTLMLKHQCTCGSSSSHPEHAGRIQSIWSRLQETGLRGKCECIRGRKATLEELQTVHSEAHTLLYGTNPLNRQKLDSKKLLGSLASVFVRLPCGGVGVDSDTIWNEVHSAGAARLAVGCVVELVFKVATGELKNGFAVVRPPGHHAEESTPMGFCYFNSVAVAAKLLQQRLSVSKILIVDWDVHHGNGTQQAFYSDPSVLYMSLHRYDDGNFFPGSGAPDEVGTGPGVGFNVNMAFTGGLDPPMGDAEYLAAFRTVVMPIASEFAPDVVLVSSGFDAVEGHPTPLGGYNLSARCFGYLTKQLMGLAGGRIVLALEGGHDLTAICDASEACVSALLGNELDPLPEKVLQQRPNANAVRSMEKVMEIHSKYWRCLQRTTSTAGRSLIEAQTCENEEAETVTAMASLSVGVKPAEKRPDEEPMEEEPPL
Sequence of HDAC1 (Q13547 whole entry, species assumed, canonical isoform): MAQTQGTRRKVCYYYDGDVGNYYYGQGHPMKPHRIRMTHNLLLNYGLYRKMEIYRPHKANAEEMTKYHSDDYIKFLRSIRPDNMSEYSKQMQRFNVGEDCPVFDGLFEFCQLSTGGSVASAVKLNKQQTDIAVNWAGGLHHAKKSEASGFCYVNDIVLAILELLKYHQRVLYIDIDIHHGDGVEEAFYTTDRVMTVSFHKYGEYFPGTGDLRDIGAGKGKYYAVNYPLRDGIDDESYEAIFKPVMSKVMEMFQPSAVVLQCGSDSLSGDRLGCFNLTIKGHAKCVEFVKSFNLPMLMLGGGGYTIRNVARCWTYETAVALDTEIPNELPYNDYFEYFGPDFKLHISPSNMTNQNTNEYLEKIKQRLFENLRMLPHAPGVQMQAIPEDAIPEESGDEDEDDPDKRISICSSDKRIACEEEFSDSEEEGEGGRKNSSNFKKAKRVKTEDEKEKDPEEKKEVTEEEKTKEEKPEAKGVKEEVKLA

In the case of `CCCCN(Cc1ccc(C(=O)NO)cc1)C(=O)Nc1ccccc1` [NextA], the “concentration at which cytotoxicity begins” value in [1] was 10 µM.

What is called IC50 is the concentration needed to halve the response being measured. Regarding `O=C(O)c1cnc2scc(-c3ccc(Br)cc3)n12` [5a], the IC50 is greater than 80 µM in data set [2]; greater than 80 µM in data set [3]; 6.52 ± 0.45 µM in data set [4]; greater than 80 µM in [5]; greater than 80 µM in data set [6]; greater than 80 µM in data set [7].

What is called inhibition is the relative decrease from the control value, in per cent. Turning to `O=C(NO)c1ccc(CNC(=O)c2cnc3scc(-c4ccc(Br)cc4)n23)cc1` [Compound 7a, 3-(4-Bromophenyl)-N-[4-(hydroxycarbamoyl)benzyl]imidazo[2,1-b]thiazole-5-carboxamide], the IC50 in data set [2] is greater than 80 µM; in data set [3], greater than 80 µM; in [4] it was 0.53 ± 0.11 µM; in data set [8], 0.0844 µM; in data set [9] it was 6.06 µM; in data set [5], greater than 80 µM. Also, the IC50 in data set [10] is 2.45 µM; in data set [6], greater than 80 µM. For the same compound, the “Selectivity Index (SI) = HDAC1 IC50 value/HDAC6 IC50 value” in [8] turned out to be 29.00. Also, the inhibition at 1 µM in data set [8] was determined as 85.6%. Besides, the inhibition at 10 µM in data set [11] was determined as 31.5%.

As to `NCc1ccc(NC(=O)N(CCCCO)Cc2ccc(C(=O)NO)cc2)cc1` [Suprastat], the “concentration at which cytotoxicity begins” value in data set [1] was greater than 25 µM.

As to `Cc1ccc(-c2csc3ncc(C(=O)Nc4ccc(NCCCCCCC(=O)NO)cc4)n23)cc1` [Compound 10k, N-{4-[(7-(hydroxyamino)-7-oxoheptyl)amino]phenyl}-3-(p-tolyl)imidazo[2,1-b]thiazole-5-carboxamide], the IC50 in [2] was greater than 80 µM; in [3], greater than 80 µM; in data set [4], 0.16 ± 0.03 µM; in data set [8], 0.391 µM; in data set [5], greater than 80 µM; in [10], 1.19 µM. The IC50 in [6] was greater than 80 µM. The “Selectivity Index (SI) = HDAC1 IC50 value/HDAC6 IC50 value” in data set [8] was 3.04. Further, in [8], the inhibition at 1 µM worked out at 70.7%. Besides, the inhibition at 10 µM in data set [9] (read-out: HDAC11 % inhibition rate at 10 μM) is 29.8%; in [11] it was 9.68%.
